# Where “and” joins values, the source holds several entries; their conditions need not be identical. Identical values can stand only once. Entries after “also recorded” stand apart in the source; their conditions may differ.
# System: organotypical skin equivalents (Skinethic)
# Experiment: UV-induced formation of "sunburn cells" in organotypical skin equivalents
# Format: cell-based
# Conditions: for Number of counted "sunburn cells" in individual sections of the UV-irradiated skin equivalents / Number of counted "sunburn cells", mean M of six sections: pretreatment 24 h with ectoin 4%; for Number of counted "sunburn cells" in individual sections of the UV-irradiated skin equivalents: individual section
# Protocol: An investigation is carried-out to determine whether ectoin has an inhibiting action on the UV-induced formation of “sunburn cells” in organotypical skin equivalents.
# The investigations are carried out in accordance with the method described in A. R. Young, ‘The sunburn cell’, Photodermatology 4 (1987) 127-134. The cells used are organotypical skin models. Skinethic® skin equivalents from Skinethic, Nice, France (Lot. No. PK 2 DT 07 99 022A 0603) are used. Ectoin is weighed in directly prior to the start of the test and dissolved in the use concentration of 4% in EBSS (Gibco BRL; Order No. 15015 044). The organotypical skin equivalents (Skinethic) are, depending on the treatment group, incubated for 24 hours with or without ectoin (4%) at 37° C. and 5% CO2. The two treatment groups are then subjected to UV irradiation (0, 30, 60, 100, 200, 300 mJ/cm^2 of UVB) using a sun simulator (SOL 500, Dr. Hönle). Following incubation for a further 24 hours at 37° C. and 5% CO2, all skin equivalents are prepared histologically and investigated for induced “sunburn cells”.
smiles,measurement,setting,value
"CC1=N[C@H](C(=O)O)CCN1 [ectoin, (S)-1,4,5,6-tetrahydro-2-methyl-4-pyrimidine-carboxylic acid]","Number of counted ""sunburn cells"" in individual sections of the UV-irradiated skin equivalents",irradiation 0 mJ/cm^2 UVB,0
same,"Number of counted ""sunburn cells"", mean M of six sections","irradiation 0 mJ/cm^2 UVB, mean of six sections",0.00
same,"Number of counted ""sunburn cells"" in individual sections of the UV-irradiated skin equivalents",irradiation 30 mJ/cm^2 UVB,1 (2×) and 2 (2×) and 3 and 0
same,"Number of counted ""sunburn cells"", mean M of six sections","irradiation 30 mJ/cm^2 UVB, mean of six sections",1.50
same,"Number of counted ""sunburn cells"" in individual sections of the UV-irradiated skin equivalents",irradiation 60 mJ/cm^2 UVB,2 (2×) and 4 and 3 (3×)
same,"Number of counted ""sunburn cells"", mean M of six sections","irradiation 60 mJ/cm^2 UVB, mean of six sections (per section)",2.83±0.75 and 2.83
same,"Number of counted ""sunburn cells"" in individual sections of the UV-irradiated skin equivalents",irradiation 100 mJ/cm^2 UVB,9 (2×) and 10 (2×) and 8 (2×)
same,"Number of counted ""sunburn cells"", mean M of six sections","irradiation 100 mJ/cm^2 UVB, mean of six sections (per section)",9±0.89 and 9.00
same,"Number of counted ""sunburn cells"" in individual sections of the UV-irradiated skin equivalents",irradiation 200 mJ/cm^2 UVB,39 (2×) and 32 (2×) and 35 and 34
same,"Number of counted ""sunburn cells"", mean M of six sections","irradiation 200 mJ/cm^2 UVB, mean of six sections (per section)",35.17±3.19 and 35.17
same,"Number of counted ""sunburn cells"" in individual sections of the UV-irradiated skin equivalents",irradiation 300 mJ/cm^2 UVB,>100 (5×) and <100
same,"Number of counted ""sunburn cells"", mean M of six sections","irradiation 300 mJ/cm^2 UVB, mean of six sections",>100
same,dose-effect relationship between the rate of formation of SBCs and the administered UV dose,"pretreatment with ectoin versus no pretreatment, 0-300 mJ/cm^2 UVB",shifted significantly to higher UV dose ranges; also recorded: significantly into higher UV dose ranges

# Source: patent publication US20030157040A1, “Use of ectoine or ectoine derivatives in cosmetic formulations” (Merck Patent GmbH, priority 1998, published 2003)
